In patent publication EP0981626B1, “FUNGICIDAL TEST METHOD” (Bayer CropScience Limited, priority 1997, dated 1998):

Assays:
[1] = system: recombinant IPMDH (3-isopropylmalate dehydrogenase); assay: biochemical screen for inhibitors of recombinant IPMDH (spectrometric NADH assay at 340 nm); parameters: species or system Septoria nodorum; details: buffer as control; for % inhibition at 3.3 ppm: first test; for % inhibition at 3.3 ppm, Repeat: repeat test
Description: The recombinant IPMDH was used in a biochemical screen for inhibitors of 3-isopropylmalate dehydrogenase as follows. The assay was originally described by Parsons in 1969 (Purification and properties of β-IPMD, Parsons et al., Journal of Biological Chemistry, 244, (4), 996-1003. It is an spectrometric assay, based on the reduction of coenzyme […] measured at 340 nm. Prior to any assay the rate of production of a given unit of β-NADH was determined and only the rate of the initial linear fraction of the progress curve was taken for the evaluated assay. The reagents for the assay are: the enzyme 3-Isopropyl malate dehydrogenase, KH2PO4, MnCl2, β-NAD (nicotinamide adenine dinucleotide) and the substrate isopropylmalate. […] The mixture is incubated for two minutes at 25°C and the reaction is started by adding 140µl buffer containing the substrate IPM, KH2PO4, MnCl2, β-NAD at pH8. The rate of the increase β-NADH is monitored each minute and five data points are collected. The inhibition of the potential inhibitors are expressed in %-inhibition using buffer as a control. […] Tabulated below are a selection of compounds which gave a significant inhibition of recombinant IPMDH. These compounds were also able to inhibit Septoria nodorum in vitro. […] Approximately 10^5 conidia of Septoria nodorum BS171 were inoculated to Cz medium with the compounds and the effect on fungal growth assessed after six days.

Septoria nodorum (BS171) = assay: in vitro inhibition of fungal growth in Cz medium; type: cell-based; details: Parastagonospora nodorum, 144 h; tested at 10, 25, 50, 75, 100, 150, 200 and 250 ppm in Cz medium; growth assessed after six days
Excerpt: Tabulated below are a selection of compounds which gave a significant inhibition of recombinant IPMDH. These compounds were also able to inhibit Septoria nodorum in vitro. […] Approximately 10^5 conidia of Septoria nodorum BS171 were inoculated to Cz medium with the compounds and the effect on fungal growth assessed after six days.

Phytophthora infestans = type: in vivo; details: 500 ppm; late tomato or potato blight; score = % control class
Plasmopara viticola = assay: in vivo fungicidal activity on test plants, visually estimated infection
Erysiphe cichoracearum = assay: as above; details: 500 ppm
[2] = 125 ppm, vine downy mildew, score = % control class
[3] = cucumber powdery mildew, score = % control class

| SMILES | % inhibition at 3.3 ppm [1] | % inhibition at 3.3 ppm, Repeat [1] | MIC (Septoria nodorum (BS171)) | Score (Phytophthora infestans) | Score (Plasmopara viticola; [2]) | Score (Erysiphe cichoracearum; [3]) | Score (Plasmopara viticola; 500 ppm, vine downy mildew, score = % control class) | Score (Plasmopara viticola; 125 ppm) | Score (Erysiphe cichoracearum) |
| --- | --- | --- | --- | --- | --- | --- | --- | --- | --- |
| O=C(Oc1ccccc1)n1c(C(F)(F)F)nc2c(Br)c(Br)c(Br)cc21 [Compound 2, phenyl 4,5,6-tribromo-2-trifluoromethyl-benzimidazole-1-carboxylate] | 33% | 42% | > 250 µg/mL | 6 (75-84) | 6 (@125 ppm) (75-84) | 7 (85-94) |  |  |  |
| CC(C)CCC(C)OC(=O)n1c(C(F)(F)F)nc2c(Br)c(Br)c(Br)cc21 (centres unmarked) [Compound 3, 1,4-dimethylpentyl 4,5,6-tribromo-2-trifluoromethyl-benzimidazole-1-carboxylate] | 57% | 20% | 100 to 150 µg/mL |  |  | 8 (95-100) | 8 (95-100) |  |  |
| N#Cc1sc2c(=O)c3ccccc3c(=O)c=2sc1C#N [Compound 4, 5,10-dioxo-5,10-dihydronaphtho-[2,3-b][1,4]dithiine-2,3-dicarbonitrile] | 41% | 66% | 0 to 10 µg/mL | 7 (85-94) |  |  |  | 7 (@125 ppm) (key: 0-20; 1: 20-34; 2: 35-44; 3: 45-54; 55-64; 65-74; 6: 75-84; 7: 85-94; 8: 95-100) | 0 (key: 0-20; 1: 20-34; 2: 35-44; 3: 45-54; 55-64; 65-74; 6: 75-84; 7: 85-94; 8: 95-100) |
| O=C(Oc1ccccc1)n1c(C(F)(F)F)nc2cc(Br)c(Cl)cc21 [Compound 1, phenyl 5-bromo-6-chloro-2-trifluoromethyl-benzimidazole-1-carboxylate] | 33% | 56% | 100 to 150 µg/mL | 7 (85-94) | 5 (@125 ppm) (65-74) | 6 (75-84) |  |  |  |
